These results are taken from US10544152B2, “5-HT2CR agonist analogs” (The Board of Regents of The University of Texas System, priority 2017, dated 2020).

The structures appear in SMILES notation. Where two headings read alike, the source gives them in different places.

Assay [1] addresses T1, 5-HT2CR (Homo sapiens (Human), UniProt P28335). Kind of assay: Intracellular calcium (Cai++) release assay, FLIPR Calcium 4, U2OS cells stably expressing 5-HT2CR. Type of assay: cell-based. The following applies: for Emax: % Cai++ release obtained with 1 μM of WAY163909 (1), U2OS cells expressing human 5-HT2CR; for EC50: Cai++ release, U2OS cell line stably expressing human 5-HT2CR, mean ± SEM, at least three independent experiments. How it is done:
The PathHunter® U2OS HTR2C β-Arrestin cell line (5-HT2cR-U2OS; DiscoveRx) stably express the nonedited human 5-HT2CR isoform (h5-HT2CR). The 5-HT2CR-U2OS cells were grown in Assay Complete™ U2OS Medium 31 (DiscoveRx) at 37° C., 5% CO2 and 85% relative humidity according to manufacturer's recommendations utilizing AssayComplete™ Cell Detachment Reagent (DiscoveRx). Cells were passaged at 70-80% confluence and all experiments were conducted using cells in log phase growth.
The ability of the molecules to act as agonists to induce 5-HT2CR-mediated intracellular calcium (Cai^++) release was conducted in an U2OS cell line stably expressing the human 5-HT2CR.
Intracellular calcium (Cai^++) release was monitored using the FLIPR Calcium 4 Assay Kit (Molecular Devices) according to previously published protocols with minor modifications. See, e.g., Shashack, M. J., et al., ACS Chem Neurosci. 2 (11), 640-644 (2011); Seitz, P. K.; Bremer, N. M., et al., BMC Neurosci. 13, 25 (2012).
Cells were plated at 5,000-7,000 cells/well in Assay Complete™ Cell Plating Reagent 16 (DiscoveRx) in black-sided, clear bottomed 96-well tissue culture plates and allowed to adhere overnight. Medium was removed and replaced with 40 μl Hank's balanced salt solution without calcium, magnesium and phenol red (HBSS; Corning) plus 40 μl Calcium 4 dye solution in Buffer B supplemented with 2.5 mM probenecid (Sigma-Aldrich) to inhibit extracellular dye transport. Plates were incubated for 60 min at 37° C. followed by 30 min at room temperature in the dark.
Fluorescence (λex=485 nm, λem=525 nm) was measured using a FlexStation3 (Molecular Devices). Baseline was established for 17 secs before addition of 20 μl vehicle (HBSS without calcium or magnesium) or 5× concentrated compound. […] Maximum peak height was determined using FlexStation software (SoftMax Pro 5.4). After the final readings, cells were fixed in 2% paraformaldehyde overnight.
Peak responses from each well were normalized to total cell mass as determined with crystal violet staining. See e.g., Ding, C. et al., ACS Chem. Neurosci 3 (7), 538-545 (2012). […] Potency of the compounds was determined using the EC50 (concentration of compound required to achieve half-maximal response). The EC50 values were determined using 4-parameter nonlinear regression analysis and calculated from at least three independent experiments, each conducted in triplicate, and are presented as mean±SEM. Ratkowsky, D. A., et al., Biometrics 42, 575-582 (1986).

For assay [2], the target named is T1, 5-HT2CR. Kind of assay: CEREP radioligand displacement of [125I]-(±)-DOI at 5-HT2CR. The conditions noted are these: duplicate, read-out: mean percent inhibition of control specific binding, 5-HT2CR. The procedure:
(§1) Compounds were submitted to CEREP to determine receptor selectivity at the 5-HT2 Compounds were tested at a single concentration of 10 μM in duplicate to determine their ability to displace [^125I]-(±)-DOI. The data are presented as mean percent inhibition of control specific binding for compound tested at each receptor subtype (Table 2). Significant inhibition is considered >50%; 25-50% inhibition is indicative of weak to moderate effects.
(Displacement assays read how much labelled ligand stays bound in the presence of the test substance.)

The target of another assay is 5-HT2AR (Homo sapiens (Human), UniProt P28223). Kind of assay: CEREP radioligand displacement of [125I]-(±)-DOI at 5-HT2AR. The following applies: read-out: mean percent inhibition of control specific binding, 5-HT2AR. The procedure: as §1
In a further assay the target is 5-HT2BR (Homo sapiens (Human), UniProt P41595). Description: CEREP radioligand displacement of [125I]-(±)-DOI at 5-HT2BR. The conditions noted are these: duplicate, read-out: mean percent inhibition of control specific binding, 5-HT2BR. How it is done: as §1
5-HT2BR, sequence (P41595 whole entry): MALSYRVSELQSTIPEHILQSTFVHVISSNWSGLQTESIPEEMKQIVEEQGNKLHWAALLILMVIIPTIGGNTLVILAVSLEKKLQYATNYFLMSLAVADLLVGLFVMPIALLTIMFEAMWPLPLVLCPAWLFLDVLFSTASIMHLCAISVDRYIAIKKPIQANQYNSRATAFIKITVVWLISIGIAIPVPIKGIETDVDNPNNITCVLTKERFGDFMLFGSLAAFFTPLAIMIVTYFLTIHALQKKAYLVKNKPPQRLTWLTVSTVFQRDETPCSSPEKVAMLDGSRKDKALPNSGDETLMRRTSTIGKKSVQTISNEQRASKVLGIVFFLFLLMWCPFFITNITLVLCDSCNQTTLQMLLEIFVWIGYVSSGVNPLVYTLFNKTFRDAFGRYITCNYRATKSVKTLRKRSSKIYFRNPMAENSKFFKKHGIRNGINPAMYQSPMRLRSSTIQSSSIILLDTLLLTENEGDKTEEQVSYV

T1 sequence (P28335 33-458): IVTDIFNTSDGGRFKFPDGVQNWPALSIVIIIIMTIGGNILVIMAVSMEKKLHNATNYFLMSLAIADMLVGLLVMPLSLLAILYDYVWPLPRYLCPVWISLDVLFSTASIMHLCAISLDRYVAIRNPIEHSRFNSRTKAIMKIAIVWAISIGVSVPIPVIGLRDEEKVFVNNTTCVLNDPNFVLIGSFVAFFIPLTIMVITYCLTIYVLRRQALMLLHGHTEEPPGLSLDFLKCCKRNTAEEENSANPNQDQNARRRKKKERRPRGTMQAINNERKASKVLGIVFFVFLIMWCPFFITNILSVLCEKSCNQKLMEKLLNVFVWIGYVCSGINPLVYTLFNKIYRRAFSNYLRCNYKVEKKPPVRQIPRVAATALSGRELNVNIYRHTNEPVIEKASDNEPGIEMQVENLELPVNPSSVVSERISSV
5-HT2AR, sequence (P28223 whole entry): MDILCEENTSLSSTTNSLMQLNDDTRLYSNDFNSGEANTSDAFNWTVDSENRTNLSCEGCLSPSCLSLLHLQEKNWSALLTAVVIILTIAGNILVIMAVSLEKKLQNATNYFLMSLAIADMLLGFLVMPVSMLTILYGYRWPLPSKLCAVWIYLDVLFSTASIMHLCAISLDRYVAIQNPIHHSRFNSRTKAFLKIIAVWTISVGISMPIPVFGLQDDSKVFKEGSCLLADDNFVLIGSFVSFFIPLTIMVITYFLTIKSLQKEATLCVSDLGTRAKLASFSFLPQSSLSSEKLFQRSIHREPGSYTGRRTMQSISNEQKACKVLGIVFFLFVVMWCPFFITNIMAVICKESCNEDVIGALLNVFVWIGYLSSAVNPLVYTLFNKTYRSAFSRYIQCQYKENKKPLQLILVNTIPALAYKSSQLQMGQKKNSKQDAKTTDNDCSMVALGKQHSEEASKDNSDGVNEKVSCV

As a reminder, the Emax is the greatest response seen or fitted, relative to the assay's reference. As a reminder, the EC50 is the concentration needed to bring the measured effect to its halfway point. The term inhibition denotes the relative decrease from the control value, in per cent. As for `C#CCOCCOCCOc1ccc2c3c1C1CCCC1N3CCNC2` (racemic) [Compound 45, 7-(2-(2-(prop-2-ynyloxy)ethoxy)ethoxy)-2,3,4,7b,8,9,10,10a-octahydro-1H-cyclopenta[b][1,4]diazepino[6,7,1-hi]indole], the Emax on 5-HT2CR [1] stood at 99.3 ± 2.2%. In addition, the EC50 at 5-HT2CR [1] worked out at 218 ± 53.1 nM. Besides, the inhibition at 10 µM at 5-HT2CR [2] was determined as 99.6%; on 5-HT2AR (10 μM, duplicate, displacement of [125I]-(±)-DOI), 67.1%; at 5-HT2BR it was 67.7%.

With `COc1ccc2c3c1[C@H]1CCC[C@H]1N3CCNC2` (racemic) [Compound 36, 7-methoxy-2,3,4,7b,8,9,10,10a-octahydro-1H-cyclopenta[b][1,4]diazepino[6,7,1-hi]indole], the Emax at 5-HT2CR [1] is 105 ± 6.1%. For the same molecule, the EC50 at 5-HT2CR [1] worked out at 1.2 ± 0.3 nM. Further, the inhibition at 10 µM at 5-HT2CR [2] turned out to be 100%; at 5-HT2AR, 86.5%; on 5-HT2BR, 98.6%.

In the case of `OCCc1c[nH]c2ccc(O)cc12` [Compound 27, reference compound], at 5-HT2CR [1], the Emax is 100% and the EC50 came to 0.33 ± 0.1 nM.

On to `COc1ccc2c3c1C1CCCC1N3CCNC2` (racemic) [Compound 18, 7-methoxy-2,3,4,7b,8,9,10,10a-octahydro-1H-cyclopenta[b][1,4]diazepino[6,7,1-hi]indole], for which, on 5-HT2CR [1], the Emax came out at 103 ± 4.6% and the EC50 came to 2.4 ± 0.4 nM.

For `c1cc2c3c(c1)[C@H]1CCC[C@H]1N3CCNC2` (racemic) [Compound 1, (7bR,10aR)-1,2,3,4,8,9,10,10a-octahydro-7bH-cyclopenta-[b][1,4]diazepino[6,7,1hi]indole, reference compound], at 5-HT2CR [1], the Emax came to 100%.

With `C#CCOCCOCCOCCOc1ccc2c3c1C1CCCC1N3CCNC2` (stereo not shown) [Compound 46, 7-(2-(2-(2-(prop-2-ynyloxy)ethoxy)ethoxy)ethoxy)-2,3,4,7b,8,9,10,10a-octahydro-1H-cyclopenta[b][1,4]diazepino[6,7,1-hi]indole], on 5-HT2CR [1], the Emax was found to be 95.2 ± 2.3% and the EC50 amounted to 575 ± 112 nM.

Turning to `COc1cc2c3c(c1)[C@H]1CCC[C@H]1N3CCNC2` (racemic) [Compound 17], at 5-HT2CR [1], the Emax came out at 95.9 ± 1.5% and the EC50 is 1480 ± 238 nM.

As for `Oc1ccc2c3c1[C@H]1CCC[C@H]1N3CCNC2` (racemic) [Compound 35], on 5-HT2CR [1], the Emax turned out to be 95.9 ± 2.6% and the EC50 came out at 119 ± 11.5 nM.

As for `C#CCOCCOc1ccc2c3c1C1CCCC1N3CCNC2` (racemic) [Compound 44, 7-(2-(Prop-2-ynyloxy)ethoxy)-2,3,4,7b,8,9,10,10a-octahydro-1H-cyclopenta[b][1,4]diazepino[6,7,1-hi]indole], on 5-HT2CR [1], the Emax was determined as 97.2 ± 2.3% and the EC50 is 51.9 ± 9.6 nM.

For `COc1ccc2c3c1[C@@H]1CCC[C@@H]1N3CCNC2` (stereo in doubt) [Compound 37, 7-methoxy-2,3,4,7b,8,9,10,10a-octahydro-1H-cyclopenta[b][1,4]diazepino[6,7,1-hi]indole], at 5-HT2CR [1], the Emax was determined as 97.6 ± 4.7%. Moreover, the EC50 on 5-HT2CR [1] turned out to be 72.4 ± 14.5 nM. The values for the inhibition at 10 µM at 5-HT2CR [2], on 5-HT2AR and on 5-HT2BR were 91.5%, 22.8% and 4.8%, respectively.
